We go through one compound from EP2949653A1, “ISOXAZOLE DERIVATIVES AS LEUKOTRIENE BIOSYNTHESIS INHIBITORS” (Banoglu, Erden, priority 2014, dated 2015).

One data set addresses T1, purified 5-LO (Homo sapiens, UniProt P09917).
T1 sequence (P09917 1-674): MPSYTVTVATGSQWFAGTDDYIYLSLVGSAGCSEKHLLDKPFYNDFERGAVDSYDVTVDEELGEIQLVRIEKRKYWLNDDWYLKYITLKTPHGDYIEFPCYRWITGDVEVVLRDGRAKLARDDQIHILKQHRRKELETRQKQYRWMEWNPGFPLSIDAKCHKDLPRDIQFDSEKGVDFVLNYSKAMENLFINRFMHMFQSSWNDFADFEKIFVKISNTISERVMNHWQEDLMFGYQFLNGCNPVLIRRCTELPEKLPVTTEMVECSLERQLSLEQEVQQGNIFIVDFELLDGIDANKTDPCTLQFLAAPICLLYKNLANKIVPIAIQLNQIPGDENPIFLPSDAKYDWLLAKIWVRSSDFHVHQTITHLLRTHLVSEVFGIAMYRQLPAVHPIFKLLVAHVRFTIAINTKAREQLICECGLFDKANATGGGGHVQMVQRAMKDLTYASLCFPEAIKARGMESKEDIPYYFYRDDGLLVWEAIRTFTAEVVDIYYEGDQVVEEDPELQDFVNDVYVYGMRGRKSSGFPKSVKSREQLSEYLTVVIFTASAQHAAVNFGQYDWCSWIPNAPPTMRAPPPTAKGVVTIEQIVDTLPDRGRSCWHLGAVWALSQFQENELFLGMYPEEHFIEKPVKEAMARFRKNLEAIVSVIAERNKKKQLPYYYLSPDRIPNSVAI
Put plainly: Purified / human recombinant 5-LO activity (cell-free). Format: biochemical. The method, then: (§1) Cell based and cell-free assays carried out in biological studies, immunofluorescence microscopy analysis and zymosan-induced peritonitis in mice are performed as described hereinabove (Pegola, C. and et al., British J. Pharmacology, 2014, D01:10.1111/bph.12625). In the cell based assays (intact neutrophils or monocytes), 5-LO mediated product formation is started, after pre-incubation with test compounds (or control DMSO) for 15 min. at 37 °C, with addition of Ca-ionophore A23187 (2.5 µM) to the fresh 5 x 10^6 neutrophils or monocytes suspended in 1 ml of PGC buffer (phosphate buffered saline (PBS) solution containing 1 mg ml^-1 glucose and 1mM CaCl2, pH 7.4). After the incubation for 10 min. at 37 °C, the reaction is ended with addition of 1 ml of methanol, and 30 µL 1 N HCl, 200 ng prostaglandin B1 and 500 µL PBS are added to the mixture. In cell-free assays (isolated 5-LO and cell homogenates), human recombinant 5-LO protein or 40,000g supernatant is added to 1 ml of 5-LO reaction mixture (PBS, pH 7.4, 1 mM EDTA, 1 mM ATP), and then incubated with test compounds (or control DMSO) for 10 min. at 4°C, heated to 37 °C and 2 mM CaCl2 as well as AA at certain concentrations are added. The reaction is ended as described for the cell-based assays. Resulting 5-LO mediated products are extracted and analysed by the known method of high pressure liquid chromatography (HPLC) (Pergola, C. Proc Natl. Acad. Sci. U.S.A. 2008, 105, 19881). 5-LO mediated product formation (LTB4 and all trans isomers, and 5 (S)-hydro(pero)xy-6-trans-8, 11, 14-cis-eicosatetraenoic acid, 5-H(p)ETE) is expressed as ng per 10^6 cell. Cysteinyl-LTs have not been analyzed because that the amount of C4, D4 and E4 and LTB4 oxidation products are below the detection limit.
Compounds were tested in intact human neutrophils stimulated with 2.5 µM A23187 under cell based conditions and on purified 5-LO under cell free conditions. ^aData are given as remaining activity as a percentage of control (100%) at 10 µM or 1 µM inhibitor concentrations (means ± SE, n = 3-6).
9hj was added 15 min before addition of 2 mM Ca^2+ plus 3 µM, 10 µM and 30 µM AA. 100% controls correspond to 200.35 ng mL^-1 for 3 µM AA, 514.36 ng mL^-1 for 10 µM AA and 537.73 ng mL^-1 for 30 µM AA.

In data set [1] the target is T2, 5-LO (Homo sapiens, UniProt P09917).
T2 sequence (P09917 1-674): T1 sequence (P09917 1-674)
Put plainly: 5-LO mediated product synthesis in HEK293 cells transfected with only 5-LO. Format: cell-based. The settings on record: 2.5 µM A23187 plus 3 µM AA (Figure 7). On the procedure: Compound 9hj inhibited 5-LO mediated product synthesis in HEK293 cells transfected with only 5-LO, with IC50 of 900 nM. […] After preincubation of cells with 9hj for 15 min at 37°C, cells were stimulated with 2.5 µM A23187 plus 3 µM AA for 10 min at 37°C. Data are expressed as percentage of vehicle control (0.1% DMSO). 100% controls correspond to 157.48 ng mL^-1 for 5-LO transfected cells and 155.15 ng mL^-1 for 5-LO plus FLAP transfected cells.

Data set [2] concerns zymosan-induced peritonitis. Briefly: Zymosan-induced peritonitis in mice. It counts as in vivo. The following applies: i.p., male mice, 30 min before zymosan; LTC4 levels in peritoneal exudate (Figure 9). The method, then: as §1, with “In cell-free assays (isolated 5-LO and cell homogenates), human recombinant 5-LO protein or 40,000g supernatant is added to 1 ml of 5-LO reaction mixture (PBS, pH 7.4, 1 mM EDTA, 1 mM ATP), and then incubated with test compounds (or control DMSO) for 10 min. at 4°C, heated to 37 °C and 2 mM CaCl2 as well as AA at certain concentrations are added. The reaction is ended as described for the cell-based assays.” left out, “limit. […]” for “limit.”

Data set [3] deals with T2, 5-LO. Briefly: 5-LO mediated product formation in neutrophil homogenates (reducing conditions). Format: biochemical. More on the design: endogenous in cells; host or cells: neutrophil homogenates. The following applies: with or without GSH (1 mM), 20 µM AA (Figure 6). The method, then:
as §1, with “In cell-free assays (isolated 5-LO and cell homogenates), human recombinant 5-LO protein or 40,000g supernatant is added to 1 ml of 5-LO reaction mixture (PBS, pH 7.4, 1 mM EDTA, 1 mM ATP), and then incubated with test compounds (or control DMSO) for 10 min. at 4°C, heated to 37 °C and 2 mM CaCl2 as well as AA at certain concentrations are added. The reaction is ended as described for the cell-based assays.” left out, “limit. […]” for “limit.”

The next data set concerns PMNL. Put plainly: Cytotoxicity to PMNL. It counts as cell-based. The following applies: within 1 hour at 10 µM.

Each structure is given as a SMILES string. “And” between values parts separate entries of the source, which are not always exact repeats. Equal entries are not always repeated. Where two headings read alike, the source gives them in different places.

Usually IC50 stands for the point on the concentration scale where inhibition reaches its midpoint. Take `O=C(O)c1noc(-c2ccc(OCc3ccc4ccccc4n3)cc2)c1-c1ccc(Cl)cc1` [Compound 9hj, 4-(4-Chlorophenyl)-5-(4-(quinolin-2-ylmethoxy)phenyl)isoxazole-3-carboxylic acid]: the IC50 at purified 5-LO (human recombinant 5-LO, at 3, 10 and 30 µM substrate AA (Figure 5), read-out: mean IC50 activity of isolated 5-LO) was 2 µM; at purified 5-LO (purified 5-LO under cell free conditions, mean ± SE, n = 3-4, read-out: Inhibition of purified 5-LO activity IC50 (µM) cell-free), 8 µM and 8.01 µM; on 5-LO [1], 0.9 µM; against 5-LO [3], 1 µM. Besides, the ID50 zymosan-induced peritonitis in data set [2] worked out at 7 mg/kg. In addition, the “cytotoxicity to PMNL” value in the data set on PMNL is given as “not cytotoxic”.
